Data on three molecules can be found in patent US10344330B2, “Glatiramer acetate response biomarker mRNA potency assay” (Mylan Inc., priority 2013, dated 2019).

Experiment [1] concerns mIL-5 mRNA in primary LN cells. In words: mIL-5 mRNA by real-time PCR in stimulated LN cells of immunized (SJL/J×BALB/C)F1 mice (Example I). Type of experiment: cell-based, mouse. To be noted: for mIL-5 mRNA Level: Experiment 1, GA-immunized (SJL/J×BALB/C)F1; for mIL-5 mRNA: not normalized to a reference gene. On the procedure: For each of the three experiments summarized in Table 1, female (SJL/J×BALB/C) F1 hybrid (Jackson Laboratory) mice were immunized by footpad injection with either 250 μg GMA (Mylan Pharmaceuticals, Inc.) and CFA (Sigma Aldrich), or Mannitol and CFA (as a negative control). The GA solution was diluted to 5 mg/mL with Dulbecco's Phosphate-buffered saline. A dose solution was then prepared by mixing the diluted GA solution (5 mg/mL) and CFA (1:1) until well-emulsified. Each mouse received a total injection volume of 0.1 mL (250 μg GA). Animals were immunized on Day 0. Immunized animals were sacrificed via cervical dislocation on Day 10 following immunization. […] The LN were washed 3 times with −5 mL of RPMI medium, and the LN cells isolated by pressing the LN with a syringe plunger. […] The cell suspension was centrifuged at about 200×g for 10 minutes at about 4° C. and re-suspended in ice cold enriched DCCM-1 medium. The LN cells (2.5×10^6 cells/cm^2) were plated in the wells of a 48-well tissue culture plate and stimulated with GA or controls.
Expression of cytokine mRNA was quantitatively analyzed using a Real-Time PCR system (7500, Applied Biosystems).
(DCCM1 from Beit Haemek Ltd.; Cat. No. 05 010 1A). There was no MBP treatment for the 2-hour groups.
Group 1B animals were female (SJL/J×BALB/C) F1 hybrid (Jackson Laboratory) mice immunized by footpad injection with either 250 μg GA and CFA, or Mannitol and CFA (as a negative control). A dose solution was prepared by mixing a diluted GA solution (5 mg/mL) and CFA (1:1). Each mouse received a total injection volume of […] (250 μg GA). Animals were immunized on Day 0. Immunized animals were sacrificed via cervical dislocation on Day 10 following immunization. Lymph nodes from immunized mice were removed and isolated. LN cells (2.5×10^6 cells/cm^2) were plated in the wells of a 48-well tissue culture plate for stimulation with GA.
Expression of cytokine mRNA was quantitatively analyzed 4 and 6 hours after using a Real-Time PCR system (7500, Applied Biosystems).

Experiment [2] has as its system mouse IL-4 mRNA in primary LN cells. Description: Mouse IL-4 mRNA in LN cells of immunized SJL/J mice stimulated with Copaxone and GMA lots, normalized to Actβ or GAPDH (Example V). Type of experiment: cell-based. On the procedure:
A real-time polymerase chain reaction method was used to measure the expression of cytokine mRNA in GA-stimulated LN cells from GA-immunized SJL/J mice. Normalization of expression with two different housekeeping genes, GAPDH and β-actin, was tested.
Each group consisted of six female SJL/J mice immunized by injection in all four footpads with a total dose of 250 μg of one lot of GA, or mannitol and no GA. Three Copaxone batches and three GMA batches were used to immunize the mice. CFA was included in both GA and mannitol immunizations. Ten days following immunization, LN cell samples isolated from the immunized mice were each stimulated with a concentration of a Copaxone lot and a GMA lot. A positive control of 2.5 μg/mL ConA treated LN cells and a negative control of 10 μg/mL MBP treated cells were included in each group.
Therefore, the Q-PCR analysis was repeated on the samples, measuring levels of IL-2, IL-4, IL-5, and IL-13, using both GAPDH and β-actin as reference gene.

The test system of experiment [3] is IL-4 secreted by LN cells. Description: IL-4 secretion by GA-stimulated LN cells, MSD 9-plex ELISA (Example II). Type of experiment: cell-based, mouse. Particulars: for IL-4 secretion response ratio (treated cell medium to control DCCM1 medium): 21 hr. On the procedure:
Animals at 8 weeks of age were immunized by injection into four footpads using a 1 mL syringe with a 27-G, 1⁄2-inch needle. […] Ten days post-immunization, immunized animals were sacrificed via cervical dislocation. […] The LN cells were isolated by pressing the LN with the plunger end of a sterile syringe. […] Trypan blue exclusion method was used to determine the cell density of viable cells in the suspension. […] Cat. […] LN cells were plated into a 24-well tissue culture plate for drug stimulation. […] Cell debris was removed by centrifugation at ca. 200×g for 10 minutes at 4° C. Cytokines secreted by treated cells were determined on the day of collection by ELISA using mouse TH 1/TH 2 9-Plex Tissue Culture Kit (Meso Scale Discovery; Cat No. […]-2, Lot #: K0032839) which detects Th1 cytokines (IFN-γ, IL-2, IL-12, IL-1β, TNF-α, CXCL1) and Th2 cytokines (IL-4, IL-5 and IL-10). For IFN-γ, culture media also were assayed at 45 hours using mouse IFN-γ Tissue Culture Kit (Meso Scale Discovery; Cat No. […] For the positive control, 0.5 mL of LN cells (5×10^6 cells/well) were treated with 0.5 mL of ConA (5 μg/mL). For the negative control, 0.5 mL of LN cells (5×10^6 cells/well) were treated with 0.5 mL of MBP (20 μg/mL). The LN cells with mock stimulation (enriched DCCM1 medium) were used to monitor the background level of a cytokine. For the cytokine assays, calibration standards or samples were incubated in the MULTI-SPOT or the SINGLE-SPOT plate and each cytokine bound to its corresponding capture antibody. All test samples were run in duplicate. The amount of each cytokine on its distinct spot was quantified using a cytokine-specific detection antibody labeled with MSD SULFO-TAGTM reagent. Electrochemiluminescent signals from immobilized SULFO-TAGTM-labeled complexes on each spot from each well were captured by the MSD SECTOR Imager 6000, which produces a signal directly proportional to the amount of captured cytokine in a test sample. The levels of cytokines in test samples were derived by interpolation from calibration curves with calibration standards of known concentrations using reagents provided with the MSD kits. Kits were used according to the manufacturer's protocols. […] Data are expressed as a response ratio of cytokine concentration in treated cell medium to control DCCM1 medium.
A general note: ELISA stands for enzyme-linked immunosorbent assay.

Setting [4] is: 2 hour post stimulation, GA 10, ConA 2.5 μg/mL.
The mark [5] stands for this setting: 4 hour post stimulation, GA 10, MBP 10, ConA 2.5 μg/mL.
[6] abbreviates: 6 hour post stimulation, GA 10, MBP 10, ConA 2.5 μg/mL.
[7] abbreviates: 24 hour post stimulation, GA 10, MBP 10, ConA 2.5 μg/mL.
Where [8] appears, read: Group 1B (GA + CFA), 4 hours post-stimulation, GA 10, MBP 10, ConA 2.5 μg/mL.
Where [9] appears, read: Group 1B (GA + CFA), 6 hours post-stimulation, GA 10, MBP 10, ConA 2.5 μg/mL.
[10] abbreviates: Group 2B (Mannitol + CFA), 4 hours post-stimulation, GA 10, MBP 10, ConA 2.5 μg/mL.
The mark [11] stands for this setting: Group 2B (Mannitol + CFA), 6 hours post-stimulation, GA 10, MBP 10, ConA 2.5 μg/mL.
Setting [12] is: BALB/cByJ, immunized GA Intraplantar.
[13] abbreviates: BALB/cByJ, immunized GA Lower Limb.
Setting [14] is: BALB/cByJ, immunized Mannitol Intraplantar.
The mark [15] stands for this setting: C57BL10J, immunized GA Intraplantar.
Setting [16] is: C57BL10J, immunized GA Lower Limb.
[17] abbreviates: C57BL10J, immunized Mannitol Intraplantar.
[18] abbreviates: CD-1, immunized GA Intraplantar.
Setting [19] is: CD-1, immunized Mannitol Intraplantar.

For “Concanavalin A [ConA, reference compound]”, the “mIL-5 mRNA Level” value in experiment [1] (setting [4]) amounted to 3.6 fold change vs control; in experiment [1] (setting [5]), 17.1 fold change vs control; in experiment [1] (setting [6]), 13.1 fold change vs control; in experiment [1] (setting [7]), 0.5 fold change vs control. The “mIL-5 mRNA” value was found to be 20.4 fold change vs control in experiment [1] (setting [8]), 26.7 fold change vs control in experiment [1] (setting [9]), 16.6 fold change vs control in experiment [1] (setting [10]) and 36.5 fold change vs control in experiment [1] (setting [11]). For the same molecule, the “IL-4 mRNA Fold Change” value in experiment [2] (Group 3 (mice immunized with GA-M2 Mylan GMA), 2.5 μg/mL, normalized to Actβ) is 43.6 fold; in experiment [2] (Group 3 (mice immunized with GA-M2 Mylan GMA), 2.5 μg/mL, normalized to GAPDH) it was 87.9 fold; in experiment [2] (Group 4 (mice immunized with GA-C2 Copaxone), 2.5 μg/mL, normalized to Actβ), 48.3 fold; in experiment [2] (Group 4 (mice immunized with GA-C2 Copaxone), 2.5 μg/mL, normalized to GAPDH), 84.8 fold. For the same molecule, the “IL-4 secretion response ratio (treated cell medium to control DCCM1 medium)” value (from here on “IL-4 secretion response ratio”) was 46.47 in experiment [3] (setting [12]); 75.33 in experiment [3] (setting [13]); 24.71 in experiment [3] (setting [14]); 3.26 in experiment [3] (setting [15]); 4.85 in experiment [3] (setting [16]); 3.14 in experiment [3] (setting [17]). Also, the “IL-4 secretion response ratio” value in experiment [3] (setting [18]) is 9.86; in experiment [3] (CD-1, immunized GA Lower Limb), 4.91; in experiment [3] (setting [19]) it was 3.36.

“L-glutamic acid polymer with L-alanine, L-lysine and L-tyrosine, acetate (salt) [GA]”: the “mIL-5 mRNA Level” value in experiment [1] (setting [4]) came to 1.6 fold change vs control; in experiment [1] (setting [5]), 4.8 fold change vs control; in experiment [1] (setting [6]), 5.1 fold change vs control; in experiment [1] (setting [7]), 1.9 fold change vs control. The “mIL-5 mRNA” value in experiment [1] (setting [8]) is listed as 4.0 fold change vs control; in experiment [1] (setting [9]), 4.3 fold change vs control; in experiment [1] (setting [10]) it was 1.0 fold change vs control; in experiment [1] (setting [11]) it was 1.2 fold change vs control. Besides, the “mIL-5 mRNA level increase vs DCCM-1-stimulated control” value in experiment [1] (Group 1B, 4 and 6 hours (text summary of Table 10)) is listed as “at least 4 fold”. Also, in experiment [2] (Copaxone: C/A, GMA: B/D, 5 μg/mL), the IL-4 cross-potency amounted to 103%. Also, in experiment [3] (BALB/cByJ cells), the “IL-4 secretion, dose response to GA (in words)” value is “dose-dependent manner”.

B1: MBP: myelin basic protein, a negative control (protein, UniProt P02686 1-304, looked up)
Myelin basic protein: MGNHAGKRELNAEKASTNSETNRGESEKKRNLGELSRTTSEDNEVFGEADANQNNGTSSQDTAVTDSKRTADPKNAWQDAHPADPGSRPHLIRLFSRDAPGREDNTFKDRPSESDELQTIQEDSAATSESLDVMASQKRPSQRHGSKYLATASTMDHARHGFLPRHRDTGILDSIGRFFGGDRGAPKRGSGKDSHHPARTAHYGSLPQKSHGRTQDENPVVHFFKNIVTPRTPPPSQGKGRGLSLSRFSWGAEGQRPGFGYGGRASDYKSAHKGFKGVDAQGTLSKIFKLGGRDSRSGSPMARR
Turning to B1, the “mIL-5 mRNA Level” value in experiment [1] (setting [5]) worked out at 0.8 fold change vs control; in experiment [1] (setting [6]), 0.2 fold change vs control; in experiment [1] (setting [7]), 0.8 fold change vs control. Also, the “mIL-5 mRNA” value in experiment [1] (setting [8]) turned out to be 1.4 fold change vs control; in experiment [1] (setting [9]), 0.9 fold change vs control; in experiment [1] (setting [10]) it was 1.1 fold change vs control; in experiment [1] (setting [11]), 1.1 fold change vs control. For the same molecule, the “IL-4 mRNA Fold Change” value worked out at 0.8 fold in experiment [2] (Group 3 (mice immunized with GA-M2 Mylan GMA), 10 μg/mL, normalized to Actβ); 0.7 fold in experiment [2] (Group 3 (mice immunized with GA-M2 Mylan GMA), 10 μg/mL, normalized to GAPDH); 2.4 fold in experiment [2] (Group 4 (mice immunized with GA-C2 Copaxone), 10 μg/mL, normalized to Actβ); 1.3 fold in experiment [2] (Group 4 (mice immunized with GA-C2 Copaxone), 10 μg/mL, normalized to GAPDH). Also, the “IL-4 secretion response ratio” value in experiment [3] (setting [12]) amounted to 0.99; in experiment [3] (setting [13]), 1.05; in experiment [3] (setting [14]) it was 1.50; in experiment [3] (setting [15]), 1.09; in experiment [3] (setting [16]), 1.14; in experiment [3] (setting [17]), 1.03. Moreover, the “IL-4 secretion response ratio” value in experiment [3] (setting [18]) was found to be 0.99; in experiment [3] (CD-1, immunized GA Lower Limb), 0.94; in experiment [3] (setting [19]), 1.21.
